B1: AFP4-His6 (protein)
chain: MRFIVSLLAFTAAATATALPASAAKNAKLATSAAFAKQAEGTTCNVGSIACCNSPAETNNDSLLSGLLGAGLLNGLSGNTGSACAKASLIDQLGLLALVDHTEEGPVCKNIVACCPEGTTNCVAVDNAGAGTKAE
modifications: His6 tag
B2: IPTLPSS-GGG-AFP4-His6 (protein)
chain: MKFSIAAAVVAFAASVAALPPAHDSQFAGNGVGNKGNSNVKFPVPENVTVKQASDKCGDQAQLSCCNKATYAGDTTTVDEGLLSGALSGLIGAGSGAEGLGLFDQCSKLDVAVLIGIQDLVNQKCKQNIACCQNSPSSADGNLIGVGLPCVALGSIL
notes: fusion of HABP peptide IPTLPSS via GGG spacer to antifreeze protein AFP4-His6

system: not listed separately; test: Binding assay of carboxyfluorescein-labeled peptides/proteins to hydroxyapatite powder; details: 2 μM N-terminal labeled peptide/protein, 10 mg hydroxyapatite powder, HBS-T buffer, 2 h, 37° C.
Description: i. Petide/Protein Labeling For binding studies 5(6)-carboxyfluorescein was conjugated to the N-terminus of the peptides/proteins by using the corresponding succinimidyl ester (Invitrogen, Darmstadt, Germany). The labeling reaction was performed according to the manufactures protocol (Invitrogen, Darmstadt, Germany). After conjugation, the labeled peptide/protein was purified either with a PD-10 desalting column for proteins larger than 5 kDa or a PD MidiTrap G-10 for smaller proteins (GE Healthcare, Buckinghamshire, UK) or for peptides by HPLC on RP18 column. ii. Peptide/Protein Binding For the binding experiments N-terminal labeled peptides/proteins were used in a final concentration of 2 μM. The binding was carried out in HBS-T buffer (150 mM NaCl, 50 mM HEPES pH 7.5, 0.1% Tween 20). The peptides/proteins were exposed to 10 mg hydroxyapatite powder (Fluke) for 2 h at 37° C. After five wash steps with HBS-T buffer the bound peptide/protein was visualized by fluorescence microscopy with the appropriate filters (excitation 475/50; emission 525/50). To quantify the binding, the fluorescence intensity of the solution before (Fi) and after (Ff) binding was measured with a Fluostar Galaxy (BMG, Ortenberg, Germany) and the amount of bound peptide/protein was estimated (cbound=[1−(Ff/Fi)]×c0). The peptide LIKHILHRL, which was described as a non-binding peptide to hydroxyapatite, was used as a negative control [Yarbrough D K, Hagerman E, Eckert R, He J, Choi H, Cao N, et al. Specific binding and mineralization of calcified surfaces by small peptides. Calcif Tissue Int 2010; 86(1):58-66.]. All binding experiments were carried out as triplicates. Evaluation: +: 30-50% bound peptide on HAP; ++: 50-100% bound peptide on HAP

| Molecule | bound peptide on HAP |
| --- | --- |
| B1 | (35%) |
| B2 | (60%) |

same assay, conditions: 2 μM N-terminal labeled peptide/protein, 10 mg hydroxyapatite powder, HBS-T buffer, 2 h, 37° C., triplicates

| Molecule | bound peptide on HAP (evaluation class) |
| --- | --- |
| SPSTHWK [SEQ ID NO: 3] | + (+: 30-50% bound peptide on HAP) |
| NERALTL [SEQ ID NO: 13] | + (+: 30-50% bound peptide on HAP) |
| YQGASEN [SEQ ID NO: 8] | ++ (++: 50-100% bound peptide on HAP) |
| IPTLPSS [SEQ ID NO: 7] | ++ (++: 50-100% bound peptide on HAP) |
| MQTVEVT [SEQ ID NO: 14] | + (+: 30-50% bound peptide on HAP) |
| SWGTQTD [SEQ ID NO: 15] | + (+: 30-50% bound peptide on HAP) |
| GKVQAQS [SEQ ID NO: 5] | + (+: 30-50% bound peptide on HAP) |
| HPPLHHA [SEQ ID NO: 2] | + (+: 30-50% bound peptide on HAP) |
| EHITTSN [SEQ ID NO: 9] | + (+: 30-50% bound peptide on HAP) |
| RILITIP [SEQ ID NO: 10] | + (+: 30-50% bound peptide on HAP) |
| GSPATAA [SEQ ID NO: 4] | + (+: 30-50% bound peptide on HAP) |
| IDDYTRA [SEQ ID NO: 1] | ++ (++: 50-100% bound peptide on HAP) |
| TLPASSV [SEQ ID NO: 16] | ++ (++: 50-100% bound peptide on HAP) |
| IPITNLR [SEQ ID NO: 11] | + (+: 30-50% bound peptide on HAP) |
| TTSTRHI [SEQ ID NO: 12] | + (+: 30-50% bound peptide on HAP) |
| YPVTPSI [SEQ ID NO: 6] | + (+: 30-50% bound peptide on HAP) |
| B1 | + (+: 30-50% bound peptide on HAP) |
| B2 | ++ (++: 50-100% bound peptide on HAP) |

target: T1, human TRPM8 receptor (Homo sapiens, UniProt Q7Z2W7); test: Assay on TRPM8 activation (HEK293-TRPM8 cells, Ca2+-sensitive dye Fluo-4); format: cell-based; details: before and after incubation with saliva
T1 construct: expressed in transfected cells; host or cells: HEK293-TRPM8 (transformed HEK cells, tetracycline-inducible expression)
T1 sequence (Q7Z2W7 whole entry): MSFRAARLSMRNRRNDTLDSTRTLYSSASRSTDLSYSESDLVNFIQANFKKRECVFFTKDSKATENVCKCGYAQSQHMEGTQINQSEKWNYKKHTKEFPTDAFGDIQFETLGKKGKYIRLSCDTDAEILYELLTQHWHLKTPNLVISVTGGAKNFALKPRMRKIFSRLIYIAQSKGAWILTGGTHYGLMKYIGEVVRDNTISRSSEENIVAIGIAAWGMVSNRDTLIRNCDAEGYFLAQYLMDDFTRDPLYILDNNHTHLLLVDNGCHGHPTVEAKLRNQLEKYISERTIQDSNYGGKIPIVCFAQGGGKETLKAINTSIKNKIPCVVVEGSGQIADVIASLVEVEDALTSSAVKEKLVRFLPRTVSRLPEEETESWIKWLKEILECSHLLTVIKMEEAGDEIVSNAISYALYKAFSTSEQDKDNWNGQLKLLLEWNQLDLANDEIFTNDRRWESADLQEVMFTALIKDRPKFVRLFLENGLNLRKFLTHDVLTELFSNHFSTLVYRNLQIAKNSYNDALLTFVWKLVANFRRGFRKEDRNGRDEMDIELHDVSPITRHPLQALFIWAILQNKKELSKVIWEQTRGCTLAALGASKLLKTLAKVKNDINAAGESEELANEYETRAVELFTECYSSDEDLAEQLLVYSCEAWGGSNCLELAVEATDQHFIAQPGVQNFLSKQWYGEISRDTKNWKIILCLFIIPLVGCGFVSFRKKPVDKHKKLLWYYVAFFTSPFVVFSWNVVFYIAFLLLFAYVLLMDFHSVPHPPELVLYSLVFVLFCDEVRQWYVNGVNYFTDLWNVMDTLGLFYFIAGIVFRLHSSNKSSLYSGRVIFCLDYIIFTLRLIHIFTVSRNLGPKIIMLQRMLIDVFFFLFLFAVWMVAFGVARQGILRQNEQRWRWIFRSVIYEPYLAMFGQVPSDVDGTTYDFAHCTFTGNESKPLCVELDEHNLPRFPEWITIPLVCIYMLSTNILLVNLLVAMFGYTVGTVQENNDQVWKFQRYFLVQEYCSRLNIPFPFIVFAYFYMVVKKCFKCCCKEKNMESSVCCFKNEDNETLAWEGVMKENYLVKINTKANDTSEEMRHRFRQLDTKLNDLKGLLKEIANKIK
Description: The HABP peptide—cooling compound-hybrid molecules of example 4 (1 μM in Tris buffer pH 8) were incubated with pooled human saliva (5 donors) 1:1 or as reference 1:1 in Tris buffer pH 8; 37° C., for 2 hrs at 37° C. Samples were frozen until evaluation in a cell based assay for activation of the human TRPM8 receptor.
The agonisation or antagonisation of the receptor was quantified by means of a Ca^2+-sensitive dye (e.g. FURA, Fluo-4, etc.). […] To begin with, in a manner known per se, in cell culture flasks a fresh culture of transformed HEK cells was prepared. […] Addition of the test samples in quantities of 50 μl/well and measurement of the change in fluorescence (e.g. in the FLIPR assay device, Molecular Devices or NovoStar, BMG) at 485 nm excitation, 520 nm emission, and evaluation of the effective strength of the various substances/concentrations and determination of the EC50 values.

| Molecule | bioactivity on the human cool receptor TRPM8 |
| --- | --- |
| CC1CCC(C(C)C)C(O)C1 (centres unmarked) [menthol] | bioactive |

system: not listed separately; test: Binding to and release from calcium phosphate discs (HA-discs) after saliva incubation; details: read out by TRPM8 activation of the supernatant
Description: The hybrid molecules of example 4 (5 μM in Tris buffer pH 8) were incubated with calcium phosphate discs (HA-discs from Himed) at 37° C. for 1 hr. Unbound molecules were removed by washing 3-times with Tris buffer. The coated calcium phosphate discs were incubated with buffer as a control and in parallel with pooled human saliva (5 donors; 37° C., for 2 hrs). The supernatant was centrifuged and evaluated for cooling activity by specific activation of human cool receptor TRPM8.
The agonisation or antagonisation of the receptor was quantified by means of a Ca^2+-sensitive dye (e.g. FURA, Fluo-4, etc.). Agonists on their own bring about an increase in the Ca^2+-signal; antagonists in the presence of, for example, menthol bring about a reduction in the Ca^2+-signal (in each case detected by means of the Fluo-4 dye, which due to the Ca^2+ has other fluorescent properties). To begin with, in a manner known per se, in cell culture flasks a fresh culture of transformed HEK cells was prepared. […] Addition of the test samples in quantities of 50 μl/well and measurement of the change in fluorescence (e.g. in the FLIPR assay device, Molecular Devices or NovoStar, BMG) at 485 nm excitation, 520 nm emission, and evaluation of the effective strength of the various substances/concentrations and determination of the EC50 values. […]

| Molecule | bound on hydroxyapatite / released after incubation with human saliva |
| --- | --- |
| CC1CCC(C(C)C)C(O)C1 (centres unmarked) [menthol] | nothing is bound on hydroxyapatite |

system: not given; test: not given; details: described by Yarbrough et al. 2010; used as negative control; cited from earlier work

| Molecule | binding to hydroxyapatite as described in literature |
| --- | --- |
| LIKHILHRL | non-binding |

Source: patent US20190201721A1, “ORAL CARE PRODUCTS AND METHODS COMPRISING HYDROXYAPATITE BINDING PROTEINS” (BASF SE, priority 2015, published 2019)
